Reference: patent publication US20220289715A1, “PESTICIDALLY ACTIVE PYRAZINE-AMIDE COMPOUNDS” (priority 2019, published 2022)

Tests used:
Format in all cases: in vivo
[1] = test system: Plutella xylostella (Diamond Back Moth); experiment: Example B4: Plutella xylostella, artificial diet, 24-well; conditions: 192 h, application rate of 200 ppm, eggs, 8 days after infestation, read-out: control in at least one of the two categories (mortality or growth inhibition)
How it was run: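 Artificial diet in 24-well plates treated with aqueous dilutions of DMSO stocks, dried, then infested with diamondback moth eggs. Mortality and growth inhibition scored against untreated samples 8 days after infestation.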

[2] = test system: Myzus persicae (Green Peach Aphid); experiment: Example B10: Myzus persicae, sucrose solution, 96-well; conditions: 120 h, application rate of 50 ppm, 5 days after infestation
From the text: Example B10: Myzus persicae (Green Peach Aphid)
Test compounds prepared from 10,000 ppm DMSO stock solutions were applied by a liquid handling robot into 96-well microtiter plates and mixed with a sucrose solution. Parafilm was stretched over the 96-well microtiter plate and a plastic stencil with 96 holes was placed onto the plate. Aphids were sieved into the wells directly onto the Parafilm. The infested plates were closed with a gel blotting card and a second plastic stencil and then turned upside down. The samples were assessed for mortality 5 days after infestation.

[3] = test system: Spodoptera littoralis (Egyptian Cotton Leaf Worm); experiment: Example B6: Spodoptera littoralis, spray on cotton leaf discs; conditions: foliar, 72 h, application rate of 200 ppm, L1 larvae, 3 days after infestation, read-out: control in at least one of the three categories (mortality, anti-feedant effect, or growth inhibition)
How it was run: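 Leaf discs on agar sprayed with aqueous solutions made from 10,000 ppm DMSO stocks, then infested after drying with five L1 larvae. Mortality, anti-feeding and growth inhibition scored against untreated samples 3 days after infestation.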

[4] = test system: Myzus persicae (Green Peach Aphid); experiment: Example B5: Myzus persicae, intrinsic activity; conditions: 120 h, test rate of 12 ppm, 5 days after infestation
From the text: Example B5: Myzus persicae (Green Peach Aphid). Intrinsic Activity
Test compounds prepared from 10,000 ppm DMSO stock solutions were applied by pipette into 24-well microtiter plates and mixed with sucrose solution. The plates were closed with a stretched Parafilm. A plastic stencil with 24 holes was placed onto the plate and infested pea seedlings were placed directly on the Parafilm. The infested plate was closed with a gel blotting paper and another plastic stencil and then turned upside down. The samples were assessed for mortality 5 days after infestation.

[5] = test system: Chilo suppressalis (Striped Rice Stemborer); experiment: Example B3: Chilo suppressalis, artificial diet; conditions: 144 h, application rate of 200 ppm, L2 larvae, 6 days after infestation, read-out: control in at least one of the three categories (mortality, anti-feedant effect, or growth inhibition)
How it was run: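 Artificial diet was treated with aqueous dilutions made from 10,000 ppm DMSO stocks, dried, and infested with L2 larvae (6-8 per well). After 6 days, mortality, anti-feeding effect and growth inhibition were scored against untreated samples. Control was recorded when any one category exceeded the untreated sample.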

[6] = test system: Plutella xylostella (Diamondback Moth); experiment: Example B9: Plutella xylostella, artificial diet, 96-well; conditions: 216 h, application rate of 500 ppm, eggs/L1 larvae, 9 days after infestation
How it was run: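 Test solutions made from 10,000 ppm DMSO stocks were applied to artificial diet in 96-well plates. After drying, ~30 eggs per well were placed on a suspended netted lid so hatching L1 larvae dropped onto the diet. Mortality was scored 9 days after infestation.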

[7] = test system: Euschistus heros (Neotropical Brown Stink Bug); experiment: Example B2: Euschistus heros, spray on soybean leaves; conditions: 120 h, application rate of 200 ppm, N2 nymphs, 5 days after infestation, read-out: control in at least one of the two categories (mortality or growth inhibition)
Procedure: Example B2: Euschistus heros (Neotropical Brown Stink Bug)
Soybean leaves on agar in 24-well microtiter plates were sprayed with aqueous test solutions prepared from 10,000 ppm DMSO stock solutions. After drying the leaves were infested with N2 nymphs. The samples were assessed for mortality and growth inhibition in comparison to untreated samples 5 days after infestation.
The following compounds gave an effect of at least 80% control in at least one of the two categories (mortality or growth inhibition) at an application rate of 200 ppm: […]

[8] = test system: Diabrotica balteata (Corn Root Worm); experiment: Example B1: Diabrotica balteata, spray on maize sprouts; conditions: 96 h, application rate of 200 ppm, L2 larvae, 4 days after infestation, read-out: control in at least one of the two categories (mortality or growth inhibition)
How it was run: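 Maize sprouts on agar were sprayed with aqueous dilutions of DMSO stock solutions, dried, then infested with L2 larvae (6–10 per well). Mortality and growth inhibition were scored against untreated controls 4 days after infestation; test rate 200 ppm.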

[9] = test system: Tetranychus urticae (Two-Spotted Spider Mite); experiment: Example B8: Tetranychus urticae, feeding/contact activity; conditions: 192 h
Procedure: Example B8: Tetranychus urticae (Two-Spotted Spider Mite): Feeding/Contact Activity
Bean leaf discs on agar in 24-well microtiter plates were sprayed with aqueous test solutions prepared from 10,000 ppm DMSO stock solutions. After drying the leaf discs were infested with a mite population of mixed ages. The samples were assessed for mortality on mixed population (mobile stages) 8 days after infestation.

[10] = test system: Spodoptera littoralis (Egyptian Cotton Leaf Worm); experiment: Example B7: Spodoptera littoralis, uptake by lettuce roots from agar; conditions: 144 h, test rate of 12.5 ppm, absorbed by lettuce roots, eggs, 6 days after infestation, read-out: control in at least one of the three categories (mortality, anti-feeding, or growth inhibition)
From the text: Example B7: Spodoptera littoralis (Egyptian Cotton Leaf Worm)
Test compounds were applied by pipette from 10,000 ppm DMSO stock solutions into 24-well plates and mixed with agar. Lettuce seeds were placed onto the agar and the multi well plate was closed by another plate which contained also agar. After 7 days the compound was absorbed by the roots and the lettuce grew into the lid plate. The lettuce leaves were then cut off into the lid plate. Spodoptera eggs were pipetted through a plastic stencil onto a humid gel blotting paper and the lid plate was closed with it. The samples were assessed for mortality, anti-feedant effect and growth inhibition in comparison to untreated samples 6 days after infestation.
The following compounds gave an effect of at least 80% control in at least one of the three categories (mortality, anti-feeding, or growth inhibition) at a test rate of 12.5 ppm: […]

CC(NC(=O)c1cc(C(F)(F)F)cc(S(=O)(=O)C2CC2)c1)c1nccnc1-n1nccn1 (stereo not shown) [Compound P40, 3-cyclopropylsulfonyl-N-[1-[3-(triazol-2-yl)pyrazin-2-yl]ethyl]-5-(trifluoromethyl)benzamide]
≥ 80%: percent control (mortality or growth inhibition) at 200 ppm [1] | mortality at 50 ppm [2] | percent control (mortality, anti-feedant effect or growth inhibition) at 200 ppm [3] | mortality at 12 ppm [4] | percent control (mortality, anti-feedant effect or growth inhibition) at 200 ppm [5] | mortality at 500 ppm [6]

CC(NC(=O)c1cc(C(F)F)cc(C(F)(F)F)c1)c1nccnc1-n1nccn1 (stereo not shown) [Compound P3, 3-(difluoromethyl)-N-[1-[3-(triazol-2-yl)pyrazin-2-yl]ethyl]-5-(trifluoromethyl)benzamide]
≥ 80%: percent control (mortality or growth inhibition) at 200 ppm [1] | mortality at 50 ppm [2] | percent control (mortality, anti-feedant effect or growth inhibition) at 200 ppm [3] | mortality at 12 ppm [4] | percent control (mortality, anti-feedant effect or growth inhibition) at 200 ppm [5] | mortality at 500 ppm [6] | percent control (mortality or growth inhibition) at 200 ppm [7] | percent control (mortality or growth inhibition) at 200 ppm [8]

CC(NC(=O)c1cc(C(F)(F)F)cc(C2(C#N)CC2)c1)c1nccnc1-n1nccn1 (stereo not shown) [Compound P16, 3-(1-cyanocyclopropyl)-N-[1-[3-(triazol-2-yl)pyrazin-2-yl]ethyl]-5-(trifluoromethyl)benzamide]
≥ 80%: percent control (mortality or growth inhibition) at 200 ppm [1] | mortality at 50 ppm [2] | percent control (mortality, anti-feedant effect or growth inhibition) at 200 ppm [3] | mortality at 12 ppm [4] | percent control (mortality, anti-feedant effect or growth inhibition) at 200 ppm [5] | mortality at 500 ppm [6] | percent control (mortality or growth inhibition) at 200 ppm [7] | percent control (mortality or growth inhibition) at 200 ppm [8]

CC(NC(=O)c1cc(C(F)(F)F)cc(C(C)(C)C#N)c1)c1nccnc1-n1nccn1 (stereo not shown) [Compound P6, 3-(1-cyano-1-methyl-ethyl)-N-[1-[3-(triazol-2-yl)pyrazin-2-yl]ethyl]-5-(trifluoromethyl)benzamide]
≥ 80%: percent control (mortality or growth inhibition) at 200 ppm [1] | mortality at 50 ppm [2] | percent control (mortality, anti-feedant effect or growth inhibition) at 200 ppm [3] | mortality at 12 ppm [4] | percent control (mortality, anti-feedant effect or growth inhibition) at 200 ppm [5] | mortality at 500 ppm [6] | percent control (mortality or growth inhibition) at 200 ppm [7] | percent control (mortality or growth inhibition) at 200 ppm [8]

CC(NC(=O)c1cc(Cl)cc(Br)c1)c1nccnc1-n1nccn1 (stereo not shown) [Compound P35, 3-bromo-5-chloro-N-[1-[3-(triazol-2-yl)pyrazin-2-yl]ethyl]benzamide]
≥ 80%: percent control (mortality or growth inhibition) at 200 ppm [1] | mortality at 50 ppm [2] | percent control (mortality, anti-feedant effect or growth inhibition) at 200 ppm [3] | mortality at 200 ppm [9] | percent control (mortality, anti-feedant effect or growth inhibition) at 200 ppm [5] | mortality at 500 ppm [6] | percent control (mortality or growth inhibition) at 200 ppm [8]

CC(NC(=O)c1cc(OCC(F)F)cc(C(F)(F)F)c1)c1nccnc1-n1nccn1 (stereo not shown) [Compound P12, 3-(2,2-difluoroethoxy)-N-[1-[3-(triazol-2-yl)pyrazin-2-yl]ethyl]-5-(trifluoromethyl)benzamide]
≥ 80%: percent control (mortality or growth inhibition) at 200 ppm [1] | mortality at 50 ppm [2] | percent control (mortality, anti-feedant effect or growth inhibition) at 200 ppm [3] | mortality at 12 ppm [4] | percent control (mortality, anti-feeding or growth inhibition) at 12.5 ppm [10] | percent control (mortality, anti-feedant effect or growth inhibition) at 200 ppm [5] | mortality at 500 ppm [6] | percent control (mortality or growth inhibition) at 200 ppm [7]

C[C@H](NC(=O)c1cc(OC(F)F)cc(C(F)(F)F)c1)c1nccnc1-n1nccn1 [Compound P39, 3-(difluoromethoxy)-N-[(1S)-1-[3-(triazol-2-yl)pyrazin-2-yl]ethyl]-5-(trifluoromethyl)benzamide]
≥ 80%: percent control (mortality or growth inhibition) at 200 ppm [1] | percent control (mortality, anti-feedant effect or growth inhibition) at 200 ppm [3] | mortality at 12 ppm [4] | percent control (mortality, anti-feeding or growth inhibition) at 12.5 ppm [10] | percent control (mortality, anti-feedant effect or growth inhibition) at 200 ppm [5] | percent control (mortality or growth inhibition) at 200 ppm [7] | percent control (mortality or growth inhibition) at 200 ppm [8]
